Holding throughout (assay): cryo-EM structure
Common to all, as to type: binding

In one assay the target is T1, Lhca1‐Lhca4 (Arabidopsis thaliana, UniProt P27521+Q01667).
T1 construct: heterodimer within native PSI-LHCI supercomplex purified from leaves; ligand at the subunit interface
T1 sequence (Q01667 36-241): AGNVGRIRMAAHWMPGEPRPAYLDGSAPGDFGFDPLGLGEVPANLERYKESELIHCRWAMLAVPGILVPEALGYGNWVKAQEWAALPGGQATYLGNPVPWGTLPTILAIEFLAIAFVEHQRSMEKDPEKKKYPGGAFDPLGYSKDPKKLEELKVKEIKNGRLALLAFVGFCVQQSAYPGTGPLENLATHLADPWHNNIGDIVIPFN
T1 sequence (P27521 53-251): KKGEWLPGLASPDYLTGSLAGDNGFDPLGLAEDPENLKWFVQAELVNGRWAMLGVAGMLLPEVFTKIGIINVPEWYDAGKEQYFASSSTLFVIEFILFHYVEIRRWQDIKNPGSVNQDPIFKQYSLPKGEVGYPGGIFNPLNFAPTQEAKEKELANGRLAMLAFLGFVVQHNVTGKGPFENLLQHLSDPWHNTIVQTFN
The settings on record: PSI-LHCI supercomplex, 3.13 A; Lhca1/Lhca4 interface near Chl a615, hydrogen bond to Lhca1 Ser210.

For the next assay, the target named is T2, Lhca2 (Arabidopsis thaliana, UniProt Q9SYW8).
T2 construct: native LHCI antenna subunit within PSI-LHCI supercomplex purified from leaves (beta-DM, sucrose gradient)
T2 sequence (Q9SYW8 44-257): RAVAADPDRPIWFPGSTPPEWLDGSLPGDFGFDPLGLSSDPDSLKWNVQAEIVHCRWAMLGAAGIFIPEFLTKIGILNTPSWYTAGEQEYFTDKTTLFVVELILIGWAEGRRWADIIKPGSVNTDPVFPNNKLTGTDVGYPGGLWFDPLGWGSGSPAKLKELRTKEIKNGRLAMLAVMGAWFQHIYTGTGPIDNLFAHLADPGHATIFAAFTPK
The settings on record: PSI-LHCI supercomplex, 3.13 A; site L2.

The target of a further assay is T3, Lhca1 (Arabidopsis thaliana, UniProt Q01667).
T3 construct: native LHCI antenna subunit within PSI-LHCI supercomplex purified from leaves (beta-DM, sucrose gradient)
T3 sequence (Q01667 36-241): T1 sequence (Q01667 36-241)
The settings on record: PSI-LHCI supercomplex, 3.13 A; site L2.

Turning to `CC1=C[C@H](O)CC(C)(C)[C@H]1/C=C/C(C)=C/C=C/C(C)=C/C=C/C=C(C)/C=C/C=C(C)/C=C/C1=C(C)C[C@@H](O)CC1(C)C` [lutein], the cryo-EM structure result on Lhca1‐Lhca4 is “The Lut was situated at the interface between Lhca1 and Lhca4”. `CC(/C=C/C=C(C)/C=C/[C@@]12O[C@]1(C)C[C@@H](O)CC2(C)C)=C\C=C\C=C(C)\C=C\C=C(C)\C=C\[C@@]12O[C@]1(C)C[C@@H](O)CC2(C)C` [violaxanthin]: the cryo-EM structure entry at Lhca2 is “significantly higher for Lhca3 and Lhca4 than for Lhca1 and Lhca2”; at Lhca1, “Chl a603–Vio L2 coupling were significantly higher for Lhca3 and Lhca4 than for Lhca1”.

The values above are taken from article PMC12589708, “Structural determinants for red‐shifted absorption in higher‐plants Photosystem I” (The New Phytologist, 2025).
